Data reported in patent US9156796B2, “Benzoimidazole-carboxylic acid amide derivatives as APJ receptor modulators” (SANOFI, priority 2013, dated 2015).

biological target: T1, human apelin receptor (Homo sapiens, UniProt P35414); test: Determination of agonism on the human apelin receptor by a calcium fluorescence assay (FLIPR); type: cell-based; conditions: HEK293 cells stably transfected with human apelin receptor and Giaq protein, Fluo-4 calcium fluorescence, read-out: EC50 (APJ agonism)
T1 construct: expressed in transfected cells
T1 sequence (P35414 1-380): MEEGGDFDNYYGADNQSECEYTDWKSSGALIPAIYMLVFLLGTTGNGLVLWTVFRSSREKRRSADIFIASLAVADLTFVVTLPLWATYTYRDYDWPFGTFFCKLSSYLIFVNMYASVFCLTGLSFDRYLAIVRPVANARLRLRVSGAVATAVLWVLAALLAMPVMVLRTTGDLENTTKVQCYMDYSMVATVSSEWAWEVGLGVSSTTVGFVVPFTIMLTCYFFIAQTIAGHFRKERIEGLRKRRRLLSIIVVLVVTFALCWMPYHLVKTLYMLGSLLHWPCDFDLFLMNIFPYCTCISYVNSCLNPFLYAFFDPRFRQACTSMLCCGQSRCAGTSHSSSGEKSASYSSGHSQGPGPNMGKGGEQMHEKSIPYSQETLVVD
Method in brief: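 Agonist EC50s come from peak intracellular calcium transients recorded by FLIPR Tetra, scaled to the 1 μM apelin-13 maximum per plate. Test system: HEK293 stably transfected with human apelin receptor plus Giaq, Fluo-4-loaded (4 μM, 1 h, 37 °C, pH 7.4 buffer with probenecid); ≥7 concentrations, triplicates.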

Structure (SMILES)	EC50
CCC(CC)n1c(Cc2cccs2)nc2cc(C(=O)N[C@@H](CC(C)C)C(=O)NCCCN3CCC(Cc4ccccc4)CC3)ccc21 [Example 346, 1-(1-Ethyl-propyl)-2-thiophen-2-ylmethyl-1H-benzoimidazole-5-carboxylic acid {(S)-1-[3-(4-benzyl-piperidin-1-yl)-propylcarbamoyl]-3-methyl-butyl}-amide]	1.32 µM
CCC(CC)n1c(Cc2cccs2)nc2cc(C(=O)N[C@@H](CC(C)C)C(=O)NCC3CCCCN3C)ccc21 (stereo partly drawn) [Example 257, 1-(1-Ethyl-propyl)-2-thiophen-2-ylmethyl-1H-benzoimidazole-5-carboxylic acid {(S)-3-methyl-1-[(1-methyl-piperidin-2-ylmethyl)-carbamoyl]-butyl}-amide]	0.425 µM
CCC(CC)n1c(Cc2cccs2)nc2cc(C(=O)N[C@@H](CC(C)C)C(=O)NCCCN3CCN(C)CC3)ccc21 [Example 227, 1-(1-Ethyl-propyl)-2-thiophen-2-ylmethyl-1H-benzoimidazole-5-carboxylic acid {(S)-3-methyl-1-[3-(4-methyl-piperazin-1-yl)-propylcarbamoyl]-butyl}-amide]	0.287 µM
CCCN1CCCC(CNC(=O)[C@H](CC(C)C)NC(=O)c2ccc3c(c2)nc(Cc2cccs2)n3C(CC)CC)C1 (stereo partly drawn) [Example 309, 1-(1-Ethyl-propyl)-2-thiophen-2-ylmethyl-1H-benzoimidazole-5-carboxylic acid {(S)-3-methyl-1-[(1-propyl-piperidin-3-ylmethyl)-carbamoyl]-butyl}-amide]	0.482 µM
CCC(CC)n1c(Cc2cccs2)nc2cc(C(=O)N[C@H](CC(=O)O)[C@@H](C)CC)ccc21 [Example 54, (3R,4S)-3-{[1-(1-Ethyl-propyl)-2-thiophen-2-ylmethyl-1H-benzoimidazole-5-carbonyl]-amino}-4-methyl-hexanoic acid]	0.115 µM
CCC(CC)n1c(Cc2ccc(C)s2)nc2cc(C(=O)N[C@@H](CC(C)C)C(=O)O)ccc21 [Example 119, (S)-2-{[1-(1-Ethyl-propyl)-2-(5-methyl-thiophen-2-ylmethyl)-1H-benzoimidazole-5-carbonyl]-amino}-4-methyl-pentanoic acid]	33.1 µM
CCC(CC)n1c(CC2CCCC2)nc2cc(C(=O)NC(CC(=O)O)c3ccccc3)ccc21 (stereo not shown) [Example 43, 3-{[2-Cyclopentylmethyl-1-(1-ethyl-propyl)-1H-benzoimidazole-5-carbonyl]-amino}-3-phenyl-propionic acid]	14.5 µM
CCC(CC)n1c(Cc2cccs2)nc2cc(C(=O)N[C@@H](CC(C)C)C(=O)N3CCCN(Cc4c(F)cccc4Cl)CC3)ccc21 [Example 274, 1-(1-Ethyl-propyl)-2-thiophen-2-ylmethyl-1H-benzoimidazole-5-carboxylic acid {(S)-1-[4-(2-chloro-6-fluoro-benzyl)-[1,4]diazepane-1-carbonyl]-3-methyl-butyl}-amide]	12.6 µM
CCC(CC)n1c(Cc2cccs2)nc2cc(C(=O)N[C@H](CO)CCSC)ccc21 [Example 188, 1-(1-Ethyl-propyl)-2-thiophen-2-ylmethyl-1H-benzoimidazole-5-carboxylic acid ((S)-1-hydroxymethyl-3-methylsulfanyl-propyl)-amide]	4.52 µM
O=C(N[C@@H](Cc1ccccc1)C(=O)O)c1ccc2c(c1)nc(Cc1cccs1)n2C1CCCCC1C(F)(F)F (stereo partly drawn) [Example 89, (S)-3-Phenyl-2-{[2-thiophen-2-ylmethyl-1-(2-trifluoromethyl-cyclohexyl)-1H-benzoimidazole-5-carbonyl]-amino}-propionic acid]	9.33 µM
CC(C)C[C@H](NC(=O)c1ccc2c(c1)nc(Cc1cccs1)n2C1CCCCC1C)C(=O)O (stereo partly drawn) [Example 146, (S)-4-Methyl-2-{[1-(2-methyl-cyclohexyl)-2-thiophen-2-ylmethyl-1H-benzoimidazole-5-carbonyl]-amino}-pentanoic acid]	0.328 µM
CC(C)C[C@H](NC(=O)c1ccc2c(c1)nc(Cc1ccco1)n2C1CCCCC1C)C(=O)O (single isomer, unassigned) [Example 418]	0.248 µM
CCC(C)NC(=O)[C@H](CC(C)C)NC(=O)c1ccc2c(c1)nc(Cc1cccs1)n2C(CC)CC (stereo partly drawn) [Example 218, 1-(1-Ethyl-propyl)-2-thiophen-2-ylmethyl-1H-benzoimidazole-5-carboxylic acid ((S)-1-sec-butylcarbamoyl-3-methyl-butyl)-amide]	2.01 µM
CC(C)C[C@H](NC(=O)c1ccc2c(c1)nc(Cc1cccs1)n2[C@@H]1CCCC[C@H]1C)[C@H](O)CC(=O)O [Example 77, (3R,4S)-3-Hydroxy-6-methyl-4-{[1-((1R,2R)-2-methyl-cyclohexyl)-2-thiophen-2-ylmethyl-1H-benzoimidazole-5-carbonyl]-amino}-heptanoic acid]	0.053 µM
CCC(CC)n1c(Cc2cccs2)nc2cc(C(=O)N[C@@H](CC(C)C)C(=O)NCCOC(C)C)ccc21 [Example 371, 1-(1-Ethyl-propyl)-2-thiophen-2-ylmethyl-1H-benzoimidazole-5-carboxylic acid [(S)-1-(2-isopropoxy-ethylcarbamoyl)-3-methyl-butyl]-amide]	3.57 µM
CCC(CC)n1c(Cc2cccs2)nc2cc(C(=O)NC(CC(C)C)C(N)=O)ccc21 (stereo not shown) [Example 171, 1-(1-Ethyl-propyl)-2-thiophen-2-ylmethyl-1H-benzoimidazole-5-carboxylic acid (1-carbamoyl-3-methyl-butyl)-amide]	0.748 µM
CCc1ccc(CC(NC(=O)c2ccc3c(c2)nc(Cc2cccs2)n3C(CC)CC)C(=O)O)cc1 (stereo not shown) [Example 30, 3-(4-Ethyl-phenyl)-2-{[1-(1-ethyl-propyl)-2-thiophen-2-ylmethyl-1H-benzoimidazole-5-carbonyl]-amino}-propionic acid]	2.2 µM
CC(C)C[C@H](NC(=O)c1ccc2c(c1)nc(Cc1cccs1)n2C1CCCC1C)C(=O)O (single isomer, unassigned) [Example 431]	3.47 µM
CCC(CC)n1c(Cc2cccs2)nc2cc(C(=O)N[C@@H](CC(C)C)C(=O)NCCCN3CC(C)CC(C)C3)ccc21 (stereo partly drawn) [Example 332, 1-(1-Ethyl-propyl)-2-thiophen-2-ylmethyl-1H-benzoimidazole-5-carboxylic acid {(S)-1-[3-(3,5-dimethyl-piperidin-1-yl)-propylcarbamoyl]-3-methyl-butyl}-amide]	0.692 µM
CCC(CC)n1c(Cc2cccs2)nc2cc(C(=O)N[C@H](CC(=O)O)CC(C)C)ccc21 [Example 95, (S)-3-{[1-(1-Ethyl-propyl)-2-thiophen-2-ylmethyl-1H-benzoimidazole-5-carbonyl]-amino}-5-methyl-hexanoic acid]	0.095 µM
CC(C)C[C@H](NC(=O)c1ccc2c(c1)nc(Cc1cccs1)n2-c1ccccc1)C(=O)O [Example 132, (S)-4-Methyl-2-[(1-phenyl-2-thiophen-2-ylmethyl-1H-benzoimidazole-5-carbonyl)-amino]-pentanoic acid]	0.7 µM
CCC(CC)n1c(Cc2cccs2)nc2cc(C(=O)N[C@@H](CC(C)C)C(=O)NC3CCOCC3)ccc21 [Example 249, 1-(1-Ethyl-propyl)-2-thiophen-2-ylmethyl-1H-benzoimidazole-5-carboxylic acid [(S)-3-methyl-1-(tetrahydro-pyran-4-ylcarbamoyl)-butyl]-amide]	0.407 µM
CCC(CC)n1c(Cc2cccs2)nc2cc(C(=O)N[C@@H](CC(C)C)C(=O)NC3CC4CCCC(C3)N4C)ccc21 (stereo partly drawn) [Example 292, 1-(1-Ethyl-propyl)-2-thiophen-2-ylmethyl-1H-benzoimidazole-5-carboxylic acid [(S)-3-methyl-1-(9-methyl-9-aza-bicyclo[3.3.1]non-3-ylcarbamoyl)-butyl]-amide]	1.22 µM
CCC(CC)n1c(Cc2cscn2)nc2cc(C(=O)N[C@H](C(=O)O)[C@@H](C)CC)ccc21 [Example 85, (2S,3S)-2-{[1-(1-Ethyl-propyl)-2-thiazol-4-ylmethyl-1H-benzoimidazole-5-carbonyl]-amino}-3-methyl-pentanoic acid]	7.8 µM
CCC(CC)n1c(Cc2cccs2)nc2cc(C(=O)N[C@@H](CC(C)C)C(=O)N3CCCN(Cc4ccccc4)CC3)ccc21 [Example 323, 1-(1-Ethyl-propyl)-2-thiophen-2-ylmethyl-1H-benzoimidazole-5-carboxylic acid [(S)-1-(4-benzyl-[1,4]diazepane-1-carbonyl)-3-methyl-butyl]-amide]	6.75 µM
CCC(CC)n1c(Cc2cccs2)nc2cc(C(=O)N[C@H](Cc3n[nH]c(C(F)(F)F)n3)CC(C)C)ccc21 [Example 476, 1-(1-Ethyl-propyl)-2-thiophen-2-ylmethyl-1H-benzoimidazole-5-carboxylic acid [(S)-3-methyl-1-(5-trifluoromethyl-1H-[1,2,4]triazol-3-ylmethyl)-butyl]-amide]	3.95 µM
CCC(CC)n1c(Cc2cccs2)nc2cc(C(=O)N[C@@H](CC(C)C)C(=O)NCC3CN(CC(C)C)CCO3)ccc21 (stereo partly drawn) [Example 355, 1-(1-Ethyl-propyl)-2-thiophen-2-ylmethyl-1H-benzoimidazole-5-carboxylic acid {(S)-1-[(4-isobutyl-morpholin-2-ylmethyl)-carbamoyl]-3-methyl-butyl}-amide]	1.52 µM
CCC(C)n1c(Cc2cccs2)nc2cc(C(=O)N[C@@H](CC(C)C)C(=O)O)ccc21 (stereo partly drawn) [Example 147, (S)-2-[(1-sec-Butyl-2-thiophen-2-ylmethyl-1H-benzoimidazole-5-carbonyl)-amino]-4-methyl-pentanoic acid]	4.55 µM
